The text below walks through data of US20260028364A1, “CATIONIC CHROMENONES AND THEIR USE IN ONCOLOGY” (FLORATEK PHARMA S.A., priority 2022, published 2026).

Molecules are shown by their SMILES. pIC50: −log10 of the molar value.

Assay type in all cases: cell-based
The test system of assay [1] is NCI-H1299. As to the kind of experiment: CellTiter-Glo cell viability, NCI-H1299. The following applies: Homo sapiens, NCI-H1299; H1299 cells, 72 h with compound. As to the method:
(§1) Antitumor activity against a panel of cancer cell lines Antitumor activity of the compounds was assessed by using the CellTiter-Glow® Luminescent Cell Viability assay (Promega #G7572) according to the manufacturer's instructions. The compounds were tested at 5 or 6 concentrations in 1:2 dilution increments (highest concentration 10 µM) in triplicate well conditions.
(§2) Tumor cells were grown at 37° C. in a humidified atmosphere with 5% CO2 in RPMI 1640 or DMEM medium, supplemented with 10% (v/v) fetal calf serum and 50 μg/ml gentamicin for up to 20 passages, and were passaged once or twice weekly. Cells were harvested using TrypLE or PBS buffer containing 1 mM EDTA, and the percentage of viable cells is determined using a cell counter.
(§3) Cells were harvested from exponential phase cultures, counted and plated in 96 well flat-bottom microtiter plates at a cell density depending on the cell line's growth rate (4,000-20,000 cells/well depending on the cell line's growth rate) in RPMI 1640 or DMEM medium supplemented with 10% (v/v) fetal calf serum and 50 μg/ml gentamicin (140 μl/well). Cultures were incubated at 37° C. and 5% CO2 in a humidified atmosphere. After 24 h, 10 μl of test compounds or control medium are added, and left on the cells for another 72 h. Compounds were serially diluted in DMSO, transferred in cell culture medium, and added to the assay plates. The DMSO concentration was kept constant at <0.2% v/v across the assay plate. Viability of cells was quantified by the CellTiter-Glow® Luminescent Cell Viability assay (Promega #G7572). Luminescence was measured with the microplate luminometer (En Vision Perkin Elmer).
Sigmoidal concentration-response curves were fitted to the data points (test-versus-control, T/C values) obtained for each tumor model using Graph Pad prism 5.02 software. IC50 values are reported as absolute IC50 values, being the concentration of test compound at the intersection of the concentration-response curves with T/C=50%.

The test system of assay [2] is MOLT-4. As to the kind of experiment: CellTiter-Glo cell viability, MOLT-4. To be noted: Homo sapiens; MOLT-4 cells, 72 h with compound. As to the method: as §1, §2
as §3, with “After 24 h, 10 μl of test compounds or control medium are added, and left on the cells for another 72 h. Compounds were serially diluted in DMSO, transferred in cell culture medium, and added to the assay plates. The DMSO concentration was kept constant at <0.2% v/v across the assay plate.” left out, “Elmer). […]” for “Elmer).”
On the technique in general: Cellular ATP, detected with luciferase, serves as a proxy for viable cell number.

Assay [3] has as its system NALM-6. The assay can be described thus: CellTiter-Glo cell viability, NALM-6. To be noted: Homo sapiens; NALM-6 cells, 72 h with compound. As to the method: as §1, §2
as §3, with “After 24 h, 10 μl of test compounds or control medium are added, and left on the cells for another 72 h. Compounds were serially diluted in DMSO, transferred in cell culture medium, and added to the assay plates. The DMSO concentration was kept constant at <0.2% v/v across the assay plate.” left out, “Elmer). […]” for “Elmer).”

For assay [4], the system named is SHP-77. The assay can be described thus: CellTiter-Glo cell viability, SHP-77. The following applies: Homo sapiens, SHP77; SHP-77 cells, 72 h with compound. The procedure:
as §1, §2
as §3, with “After 24 h, 10 μl of test compounds or control medium are added, and left on the cells for another 72 h. Compounds were serially diluted in DMSO, transferred in cell culture medium, and added to the assay plates. The DMSO concentration was kept constant at <0.2% v/v across the assay plate.” left out, “Elmer). […]” for “Elmer).”

The test system of assay [5] is MDA-MB-468. The assay can be described thus: Caspase-Glo 3/7 apoptosis assay, MDA-MB-468. The following applies: MDA-MB-468 cells, 10 μM, 24 h. The procedure: Apoptosis activity was evaluated using Caspase-Glo 3/7 Assay kit (Promega-G8091) according to the manufacturer's instructions. Cells were grown as above and harvested from exponential phase cultures, counted and plated in 96 black well flat-bottom microtiter plates at a cell density depending on the cell line's growth rate (3,000-10,000 cells/well depending on the cell line's growth rate). Following an overnight incubation, compounds were added to the cell plates at various concentrations (highest at […]) with the DMSO concentration maintained at 0.1% for a 24 h period treatment. 100 μL of Caspase-Glo 3/7 Reagent was added to each well of 96-well plate containing 100 μL culture medium, and after 30 min at room temperature, luminescence was measured with the microplate luminometer (EnVision Perkin Elmer). The induced relative Caspase 3/7 activity of the tested compounds was determined by the following formula: Relative Caspase 3/7 activity (fold increase)=(RLU compound−RLU blank)/(RLU control−RLU blank).

The subject of assay [6] is Raji. As to the kind of experiment: CellTiter-Glo cell viability, Raji. The following applies: Homo sapiens; Raji cells, 72 h with compound. The procedure: as §1, §2
as §3, with “After 24 h, 10 μl of test compounds or control medium are added, and left on the cells for another 72 h. Compounds were serially diluted in DMSO, transferred in cell culture medium, and added to the assay plates. The DMSO concentration was kept constant at <0.2% v/v across the assay plate.” left out, “Elmer). […]” for “Elmer).”

Assay [7] deals with NFKB. The assay can be described thus: SelectScreen CellSensor pathway inhibition, NFKB. The following applies: Homo sapiens; NFKB-bla Jurkat, stimulus TNF-alpha. As to the method:
Inhibition of various cellular pathways known to be involved in malignancy was tested using the SelectScreen Cell-based Pathway Profiling GeneBLAzer™ cell signaling pathway specific CellSensor™ cell lines ((Thermo Fisher). The assay is based on a beta-lactamase reporter activity which is modulated and can be measured quantitatively and selectively with the LiveBLAzer™-FRET B/G Loading Substrate. SelectScreen Cell-Based Pathway Profiling Service uses XLfit from IDBS. The dose response curve is curve fit to model number 205 (sigmoidal dose-response model). Custom logic was built by Thermo Fisher for the data analysis tool to address the different compound characteristics that can be observed with functional assays.
NFKB—NFKB-bla Jurkat—Inhibitor Screen, Activated by TNF-Alpha
NFKB-bla Jurkat cells are thawed and resuspended in Assay Media (DMEM, 10% dialyzed FBS, 25 mM HEPES pH 7.3, 0.1 mM NEAA, 100 U/mL/100 μg/mL Pen/Strep) to a concentration of 625,000 cells/mL. […] 4 μL of 10×control activator TNF-alpha at the pre-determined EC80 concentration is added to wells containing the control inhibitor or compounds.
The plate is incubated for 5 hours at 37° C./5% CO2 in a humidified incubator. […] The plate is read on a fluorescence plate reader.

The pIC50 is −log10 of the IC50, conventionally taken in molar units. As to `COc1ccc2c(=O)c(-c3ccc(CCCC[P+](c4ccccc4)(c4ccccc4)c4ccccc4)cc3)coc2c1OC.[Br-]` [SND470, (4-(4-(7,8-Dimethoxy-4-oxo-4H-chromen-3-yl)phenyl)butyl)triphenylphosphonium bromide], the pIC50 is 7.40 in assay [1]; 6.40 in assay [2]; 6.60 in assay [3]; 6.04 in assay [4]; 6.28 in assay [6]; 5.82 in assay [7]. For the same molecule, in assay [5], the “Fold activation of Caspase 3/7” value worked out at 3.15 Fold.
